Measured values as given in the NIST ThermoML archive (doi:10.1016/j.fluid.2005.09.012).
± gives the expanded uncertainty stated by the source.

Experiments:
[1] = refractive index (Na D-line) (dimensionless); conditions: 293.15 K; 101.33 kPa; Liquid
[2] = Liquid; for mass density: 293.15 K, 101.33 kPa

Compound	refractive index [1]	mass density [2] [kg/m3]	also measured
ClC(Cl)=C(Cl)Cl [tetrachloroethene]	1.505 ± 0.0017	1625 ± 4.6	vapor or sublimation pressure ([2]; 392.25 K): 95.75 ± 9 kPa
Cc1ccc(C)cc1 [1,4-dimethylbenzene]	1.4858 ± 0.0017	861 ± 2.1	vapor or sublimation pressure ([2]; 409.35 K): 95.75 ± 9 kPa
ClCCCl [1,2-dichloroethane]	1.4196 ± 0.0017	1252.9 ± 3.4	vapor or sublimation pressure ([2]; 355.25 K): 95.75 ± 9 kPa
Cc1ccccc1C [1,2-dimethylbenzene]	1.5055 ± 0.0017	880.1 ± 2.2	vapor or sublimation pressure ([2]; 415.55 K): 95.75 ± 9 kPa
Cc1ccccc1O [2-methylphenol]	1.5467 ± 0.0017	1046 ± 2.7	vapor or sublimation pressure ([2]; 461.85 K): 95.75 ± 9.6 kPa
ClC(Cl)C(Cl)Cl [1,1,2,2-tetrachloroethane]	1.494 ± 0.0017	1593 ± 4.5	vapor or sublimation pressure ([2]; 417.35 K): 95.75 ± 9 kPa
CCCCCCC [heptane]	1.3876 ± 0.0017	683.8 ± 1.5	vapor or sublimation pressure ([2]; 369.75 K): 95.75 ± 9 kPa
ClC=C(Cl)Cl [trichloroethene]	1.4782 ± 0.0017	1464 ± 4.1	vapor or sublimation pressure ([2]; 357.95 K): 95.75 ± 9 kPa
Cc1cccc(C)c1 [1,3-dimethylbenzene]	1.4972 ± 0.0017	864.4 ± 2.1	vapor or sublimation pressure ([2]; 410.35 K): 95.75 ± 9 kPa
